From patent US11981643B1, “Oxoimidazolidine derivatives as anti-tubercular agents” (priority 2023, dated 2024)
Values after ≈ are worked out from the molar mass of the structure shown.

What follows are compounds tested on MDR strain of MTB (assay: microbe, parasite or virus in culture). Details: Mycobacterium tuberculosis, 192 h, read-out: Anti-tubercular activity against Mycobacterium tuberculosis, MDR (minimum inhibitory concentration, MIC).
Assay type: cell-based

Q: For `CN1/C(=C\c2ccc(Br)o2)C(=O)N/C1=N\C(=O)Nc1cccc(F)c1` [Compound 4g, 1-{(2E,5Z)-5-[(5-Bromofuran-2-yl)methylidene]-1-methyl-4-oxoimidazolidin-2-ylidene}-3-(3-fluorophenyl)urea], which MIC is on record?
A: 32 µg/mL (≈ 78.6 µM)

Q: For `CN1C(=Cc2ccc([N+](=O)[O-])cc2)C(=O)N/C1=N\C(=S)Nc1cccc(Cl)c1` (stereo in doubt) [Compound 4q, 1-(3-Chlorophenyl)-3-[(2E,5Z)-1-methyl-5-(4-nitrobenzylidene)-4-oxoimidazolidin-2-ylidene]thiourea], which MIC is on record?
A: 32 µg/mL (≈ 76.9 µM)

Q: Which MIC does the source give for `CN1C(=Cc2ccc(-c3ccccc3[N+](=O)[O-])o2)C(=O)N/C1=N\C(=S)Nc1ccc(F)cc1` (stereo in doubt) [Compound 4v, 1-(4-Fluorophenyl)-3-[(2E,5Z)-1-methyl-5-{[5-(2-nitrophenyl)furan-2-yl]methylidene}-4-oxoimidazolidin-2-ylidene]thiourea] here?
A: > 32 µg/mL
